Patent US9434711B2 (Janssen Pharmaceutica, NV, priority 2007, dated 2016)

Biological target: canine TRPM8 (Canis lupus familiaris, UniProt Q1A7N1)
Experiment: In Vitro Canine TRPM8 Functional Assay (Ca2+ fluorescence, icilin activation)
Assay type: cell-based
Details: for inhibition at 0.2 µM / % Inh @ 0.2 (μM): compound at 0.2 μM, canine TRPM8, icilin activation; for inhibition at 0.2 µM: read-out: % Inh @ 0.2; for IC50: HEK293 cells stably expressing canine TRPM8, icilin activation, eight-point dose-response, read-out: IC50
How it was run: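 Readout is the intracellular Ca2+ fluorescence change, measured by FLIPR or FDSS, in HEK293 cells stably expressing canine TRPM8. Potency (EC50 or IC50) is fitted from eight concentrations averaged over quadruplicate wells.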

Sequence of canine TRPM8 (Q1A7N1 1-1104): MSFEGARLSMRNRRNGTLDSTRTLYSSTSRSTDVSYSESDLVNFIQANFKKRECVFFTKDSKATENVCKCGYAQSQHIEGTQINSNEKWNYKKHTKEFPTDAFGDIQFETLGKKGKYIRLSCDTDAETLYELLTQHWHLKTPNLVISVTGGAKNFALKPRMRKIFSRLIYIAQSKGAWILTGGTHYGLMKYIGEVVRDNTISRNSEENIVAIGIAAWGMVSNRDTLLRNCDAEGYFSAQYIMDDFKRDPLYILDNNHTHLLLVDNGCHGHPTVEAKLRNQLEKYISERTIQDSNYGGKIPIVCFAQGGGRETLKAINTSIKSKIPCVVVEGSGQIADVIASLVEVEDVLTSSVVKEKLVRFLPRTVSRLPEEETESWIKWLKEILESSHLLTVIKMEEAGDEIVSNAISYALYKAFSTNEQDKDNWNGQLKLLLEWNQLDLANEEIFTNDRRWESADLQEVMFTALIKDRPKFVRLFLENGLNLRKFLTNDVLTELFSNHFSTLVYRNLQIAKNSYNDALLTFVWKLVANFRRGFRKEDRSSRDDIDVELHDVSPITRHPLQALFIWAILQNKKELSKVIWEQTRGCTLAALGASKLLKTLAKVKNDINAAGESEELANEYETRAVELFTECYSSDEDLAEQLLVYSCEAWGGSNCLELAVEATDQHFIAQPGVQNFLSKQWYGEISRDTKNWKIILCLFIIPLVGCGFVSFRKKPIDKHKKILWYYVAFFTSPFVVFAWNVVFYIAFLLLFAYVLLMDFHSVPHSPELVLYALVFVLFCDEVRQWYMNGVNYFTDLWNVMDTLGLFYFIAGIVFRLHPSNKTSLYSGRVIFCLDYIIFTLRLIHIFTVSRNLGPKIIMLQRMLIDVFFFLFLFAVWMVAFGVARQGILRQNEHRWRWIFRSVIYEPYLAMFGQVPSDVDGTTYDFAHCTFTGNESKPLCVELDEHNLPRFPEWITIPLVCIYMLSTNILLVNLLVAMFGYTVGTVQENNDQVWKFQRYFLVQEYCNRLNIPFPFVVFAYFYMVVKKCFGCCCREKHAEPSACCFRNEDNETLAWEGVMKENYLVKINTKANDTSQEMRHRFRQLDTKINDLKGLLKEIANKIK

| inhibition at 0.2 µM [%] | IC50 [nM] | Compound | % Inh @ 0.2 (μM) [%] |
| --- | --- | --- | --- |
| 19 | – | CCCCN(c1cc2ccccc2s1)S(=O)(=O)c1ccc(N2CCN(C)CC2)cc1 [Compound 447, N-(Benzo[b]thiophen-2-yl)-N-(butyl)-4-(4-methyl-piperazin-1-yl)-benzenesulfonamide] | – |
| 102 | 12 | CCCCN(c1sc2ccccc2c1C)S(=O)(=O)c1cccnc1N(C)C [Compound 448, N-(3-Methyl-benzo[b]thiophen-2-yl)-N-(butyl)-2-dimethylamino-pyridin-3-yl-sulfonamide] | – |
| 97 | 88 | CCCCN(c1cc2ccccc2s1)S(=O)(=O)c1ccc(-c2nnn[nH]2)cc1 [Compound 449, N-(Benzo[b]thiophen-2-yl)-N-(butyl)-4-(1H-tetrazol-5-yl)-benzenesulfonamide] | – |
| 101 | 29 | CCCCN(c1sc2cc(F)ccc2c1C)S(=O)(=O)c1ccc(C(=O)O)cc1 [Compound 450, N-(6-Fluoro-3-methyl-benzo[b]thiophen-2-yl)-N-(butyl)-4-carboxy-benzenesulfonamide] | – |
| 97 | 68 | O=C(O)c1ccc(S(=O)(=O)N(CCCC(F)(F)F)c2cc3ccccc3s2)cc1 [Compound 451, N-(Benzo[b]thiophen-2-yl)-N-(4,4,4-trifluoro-butyl)-4-carboxy-benzenesulfonamide] | – |
| 101 | 18 | CC(C)CN(c1sc2ccccc2c1Br)S(=O)(=O)c1ccc(C(=O)O)cc1 [Compound 452, N-(3-Bromo-benzo[b]thiophen-2-yl)-N-(isobutyl)-4-carboxy-benzenesulfonamide] | – |
| 101 | 2 | O=C(O)c1ccc(S(=O)(=O)N(CCOC2CCCCC2)c2sc3ccccc3c2Br)cc1 [Compound 453, N-(3-Bromo-benzo[b]thiophen-2-yl)-N-(2-(cyclohexyloxy)ethyl)-4-carboxy-benzenesulfonamide] | – |
| 101 | 4 | COC(C)(C)CCN(c1sc2ccccc2c1Br)S(=O)(=O)c1ccc(C(=O)O)cc1 [Compound 454, N-(3-Bromo-benzo[b]thiophen-2-yl)-N-(3-methoxy-3-methylbutyl)-4-carboxy-benzenesulfonamide] | – |
| 101 | 36 | Cc1c(N(Cc2ccc(F)c(C(F)(F)F)c2)S(=O)(=O)c2cccc(-c3nnn[nH]3)c2)sc2ccccc12 [Compound 455, N-(3-Methyl-benzo[b]thiophen-2-yl)-N-(4-fluoro-3-trifluoromethyl-benzyl)-3-(1H-tetrazol-5-yl)-benzenesulfonamide] | – |
| 67 | – | O=C(O)c1ccc(S(=O)(=O)N(CCC(F)(F)F)c2cc3ccccc3s2)cc1 [Compound 456, N-(Benzo[b]thiophen-2-yl)-N-(3,3,3-trifluoro-propyl)-4-carboxy-benzenesulfonamide] | – |
| 102 | 9 | NC(=O)c1c(N(Cc2ccc(F)c(C(F)(F)F)c2)S(=O)(=O)c2ccccc2)sc2ccccc12 [Compound 459, N-(3-Carbamoyl-benzo[b]thiophen-2-yl)-N-(4-fluoro-3-trifluoromethyl-benzyl)-benzenesulfonamide] | – |
| 102 | 8 | CC(=O)C1=C(N(Cc2ccc(F)c(C(F)(F)F)c2)S(=O)(=O)c2ccccc2)S(=O)(=O)c2ccccc21 [Compound 460, N-(3-Acetyl-1,1-dioxo-1H-benzo[b]thiophen-2-yl)-N-(4-fluoro-3-trifluoromethyl-benzyl)-benzenesulfonamide] | – |
| 30 | – | CN(C)S(=O)(=O)c1cccc(S(=O)(=O)N(CCC(F)(F)F)c2cc3ccccc3s2)c1 [Compound 461, N-(Benzo[b]thiophen-2-yl)-N-(3,3,3-trifluoro-propyl)-3-dimethylsulfamoyl-benzenesulfonamide] | – |
| – | – | CN(C)S(=O)(=O)c1cccc(S(=O)(=O)N(Cc2ccc(F)c(C(F)(F)F)c2)c2cc3ccccc3s2)c1 [Compound 462, N-(Benzo[b]thiophen-2-yl)-N-(4-fluoro-3-trifluoromethyl-benzyl)-3-N′,N′-dimethylsulfamoyl-benzenesulfonamide] | 22 |
| 101 | 26 | CC(C)(O)C1=C(N(Cc2ccc(F)c(C(F)(F)F)c2)S(=O)(=O)c2ccccc2)S(=O)(=O)c2ccccc21 [Compound 463, N-(4-Fluoro-3-trifluoromethyl-benzyl)-N-[3-(1-hydroxy-1-methyl-ethyl)-1,1-dioxo-benzo[b]thiophen-2-yl]-benzenesulfonamide] | – |
| 102 | 7 | CC(O)C1=C(N(Cc2ccc(F)c(F)c2)S(=O)(=O)c2ccccc2)S(=O)(=O)c2ccccc21 (stereo not drawn) [Compound 464, N-(3,4-Difluoro-benzyl)-N-[3-(1-hydroxy-ethyl)-1,1-dioxo-benzo[b]thiophen-2-yl]-benzenesulfonamide] | – |
| 90 | 63 | CCCCN(c1sc2ccccc2c1C(N)=O)S(=O)(=O)c1ccc(C(=O)OC)cc1 [Compound 465, N-(Butyl)-N-(3-carbamoyl-benzo[b]thiophen-2-yl)-4-carbomethoxy-benzenesulfonamide] | – |
| – | – | CCCCN(c1sc2ccccc2c1C(=O)NC)S(=O)(=O)c1ccc(C(=O)OC)cc1 [Compound 466, N-(Butyl)-N-(3-methyl-carbamoyl-benzo[b]thiophen-2-yl)-4-carbomethoxy-benzenesulfonamide] | 66 |
| 16 | – | CCCCN(c1sc2ccccc2c1C(N)=O)S(=O)(=O)c1ccc(C(=O)O)cc1 [Compound 468, N-(Butyl)-N-(3-carbamoyl-benzo[b]thiophen-2-yl)-4-carboxy-benzenesulfonamide] | – |
| 13 | – | CCCCN(c1sc2ccccc2c1C(=O)N(C)C)S(=O)(=O)c1ccc(C(=O)O)cc1 [Compound 469, N-(Butyl)-N-(3-dimethylcarbamoyl-benzo[b]thiophen-2-yl)-4-carboxy-benzenesulfonamide] | – |
| – | – | CCCCN(c1cc2ccccc2s1)S(=O)(=O)c1ccc(C2=NOS(=O)N2)cc1 (stereo not drawn) [Compound 470, N-(Benzo[b]thiophen-2-yl)-N-(butyl)-4-(3H-[1,2,3,5]oxathiadiazole-2-oxide)-benzenesulfonamide] | 15 |
| – | 59 | CCCCN(c1cc2ccccc2s1)S(=O)(=O)c1ccc(C(N)=NO)cc1 [Compound 471, N-(Benzo[b]thiophen-2-yl)-N-(butyl)-4-N-hydroxy-benzamidinesulfonamide] | 97 |
| – | 40 | CCCCN(c1cc2ccccc2s1)S(=O)(=O)c1ccc(C(N)=NC(=O)CO)cc1 [Compound 472, N-(Benzo[b]thiophen-2-yl)-N-(butyl)-4-N-hydroxyacetyl-benzamidine sulfonamide] | 88 |
| – | 9 | CCCCN(c1sc2ccccc2c1Br)S(=O)(=O)c1ccc(C(N)=NO)cc1 [Compound 473, N-(3-Bromo-benzo[b]thiophen-2-yl)-N-(butyl)-4-N-hydroxy-benzamidinesulfonamide] | 102 |
| 101 | 8 | O=S(=O)(c1ccc(-c2nnn[nH]2)cc1)N(CC1CC1)c1sc2ccccc2c1Br [Compound 474, N-(3-Bromo-benzo[b]thiophen-2-yl)-N-(cyclopropyl-methyl)-4-(1H-tetrazol-5-yl)-benzenesulfonamide] | – |
| 102 | 2 | O=S(=O)(c1ccc(-c2nnn[nH]2)cc1)N(Cc1ccc(F)c(C(F)(F)F)c1)c1sc2ccccc2c1Br [Compound 475, N-(3-Bromo-benzo[b]thiophen-2-yl)-N-(4-fluoro-3-trifluoromethyl-benzyl)-4-(1H-tetrazol-5-yl)-benzenesulfonamide] | – |
| 39 | – | O=S(=O)(c1ccc(Br)cc1)N(CCC(F)(F)F)c1cc2ccccc2s1 [Compound 476, N-(Benzo[b]thiophen-2-yl)-4-(bromo)-N-(3,3,3-trifluoro-propyl)-benzenesulfonamide] | – |
| 100 | 12 | CCCCN(c1sc2ccccc2c1Cl)S(=O)(=O)c1ccc(C(=O)O)cc1 [Compound 477, N-(3-Chloro-benzo[b]thiophen-2-yl)-N-(butyl)-4-carboxy-benzenesulfonamide] | – |
| 99 | 25 | O=C(O)c1ccc(S(=O)(=O)N(CC2CC2)c2sc3ccccc3c2Cl)cc1 [Compound 478, N-(3-Chloro-benzo[b]thiophen-2-yl)-N-(cyclopropylmethyl)-4-carboxy-benzenesulfonamide] | – |
| 100 | 13 | O=C(O)c1ccc(S(=O)(=O)N(CCC(F)(F)F)c2sc3ccccc3c2Cl)cc1 [Compound 480, N-(3-Chloro-benzo[b]thiophen-2-yl)-N-(3,3,3-trifluoro-propyl)-4-carboxy-benzenesulfonamide] | – |

| Compound | inhibition at 0.2 µM [%] | IC50 [nM] | % Inh @ 0.2 (μM) [%] |
| --- | --- | --- | --- |
| CN(C)C(=O)c1c(N(Cc2ccc(F)c(C(F)(F)F)c2)S(=O)(=O)c2ccccc2)sc2ccccc12 [Compound 457, N-(3-Dimethyl-carbamoyl-benzo[b]thiophen-2-yl)-N-(4-fluoro-3-trifluoromethyl-benzyl)-benzenesulfonamide] | – | 47 | 93 |
| CNC(=O)c1c(N(Cc2ccc(F)c(C(F)(F)F)c2)S(=O)(=O)c2ccccc2)sc2ccccc12 [Compound 458, N-(3-Methyl-carbamoyl-benzo[b]thiophen-2-yl)-N-(4-fluoro-3-trifluoromethyl-benzyl)-benzenesulfonamide] | – | 12 | 102 |
| CCCCN(c1sc2ccccc2c1C(=O)N(C)C)S(=O)(=O)c1ccc(C(=O)OC)cc1 [Compound 467, N-(Butyl)-N-(3-dimethyl-carbamoyl-benzo[b]thiophen-2-yl)-4-carbomethoxy-benzenesulfonamide] | – | 20 | 100 |
